Consider ten molecules from ChEMBL document CHEMBL5113415, “Synthesis of 10,10'-bis(trifluoromethyl) marinopyrrole A derivatives and evaluation of their antiviral activities in vitro” (Eur J Med Chem, 2022).

Data set [1] in a line: Selectivity index, ratio of CC50 for […] to IC50 for YFV-17D infected in […]. The format is toxicity, cell-based. Conditions: read-out: Ratio CC50/IC50.
The nature of data set [2]: Cytotoxicity against […] infected with JEV-SA14 incubated for 7 days by CellTiter 96 luminescent cell viability assay. The format is toxicity, cell-based. Conditions: time 7 day.
The nature of data set [3]: Cytotoxicity against human RD cells infected with CA6 incubated for 3 days by CellTiter 96 luminescent cell viability assay. The format is toxicity, cell-based. The note with it: time 3 day.
Data set [4] in a line: Selectivity index, ratio of CC50 for […] to IC50 for DENV-NGC infected in […]. The format is toxicity, cell-based. The note with it: read-out: Ratio CC50/IC50.
A short description of data set [5]: Selectivity index, ratio of CC50 for human RD cells to IC50 for CA6 infected in human RD cells. Conditions: read-out: Ratio CC50/IC50. The format is toxicity, cell-based.
The nature of data set [6]: Cytotoxicity against […] infected with YFV-17D incubated for 7 days by CellTiter 96 luminescent cell viability assay. The format is toxicity, cell-based. The note with it: time 7 day.
The nature of data set [7]: Selectivity index, ratio of CC50 for […] to IC50 for JEV-SA14 infected in […]. The format is toxicity, cell-based. Conditions: read-out: Ratio CC50/IC50.
Data set [8] is described as follows: Selectivity index, ratio of CC50 for human RD cells to IC50 for CA16 infected in human RD cells. The format is toxicity, cell-based. Conditions: read-out: Ratio CC50/IC50.
Data set [9] is described as follows: Cytotoxicity against human RD cells infected with CA16 incubated for 3 days by CellTiter 96 luminescent cell viability assay. The format is toxicity, cell-based. The note with it: time 3 day.
The nature of data set [10]: Cytotoxicity against […] infected with ZIKV-SMGC-1 incubated for 7 days by CellTiter 96 luminescent cell viability assay. The format is toxicity, cell-based. The note with it: time 7 day.
The nature of data set [11]: Cytotoxicity against […] infected with DENV-NGC-1 incubated for 7 days by CellTiter 96 luminescent cell viability assay. The format is toxicity, cell-based. Conditions: time 7 day.
The subject of a further data set is Coxsackievirus A16. Nature of the data set: Antiviral activity against CA16 infected in human RD cells incubated for 3 days by CellTiter 96 luminescent cell viability assay. The format is functional, organism-based. Conditions: Enterovirus A, 72 h.
A further data set deals with Coxsackievirus. Nature of the data set: Antiviral activity against CA6 infected in human RD cells incubated for 3 days by CellTiter 96 luminescent cell viability assay. Conditions: A6, RD, 72 h. The format is functional, organism-based.
Data set [12] can be described thus: Selectivity index, ratio of CC50 for […] to IC50 for ZIKV-SMGC-1 infected in […]. The note with it: read-out: Ratio CC50/IC50. The format is toxicity, cell-based.
The test system of the next data set is Zika virus. As to the kind of experiment: Antiviral activity against ZIKV-SMGC-1 infected in […] incubated for 7 days by CellTiter 96 luminescent cell viability assay. The format is functional, organism-based. The note with it: SMGC-1, BHK, 168 h.
In the next data set the test system is Yellow fever virus. As to the kind of experiment: Antiviral activity against YFV-17D infected in […] incubated for 7 days by CellTiter 96 luminescent cell viability assay. The format is functional, organism-based. The note with it: 168 h.
For data set [13], the system named is Japanese encephalitis virus. As to the kind of experiment: Antiviral activity against JEV-SA14 infected in […] incubated for 7 days by CellTiter 96 luminescent cell viability assay. The format is functional, organism-based. The note with it: 168 h.
A further data set relates to Dengue virus. Nature of the data set: Antiviral activity against DENV-NGC-1 infected in […] incubated for 7 days by CellTiter 96 luminescent cell viability assay. The format is functional, organism-based. The note with it: NGC-1, BHK, 168 h.
A short description of data set [14]: Selectivity index, ratio of CC50 for human RD cells to IC50 for EV71 infected in human RD cells. The format is toxicity, cell-based. The note with it: read-out: Ratio CC50/IC50.
The test system of another data set is Enterovirus A71. As to the kind of experiment: Antiviral activity against EV71 infected in human RD cells incubated for 3 days by CellTiter 96 luminescent cell viability assay. The format is functional, organism-based. The note with it: Enterovirus A, 71, RD, 72 h.
Data set [15] can be described thus: Cytotoxicity against human RD cells infected with EV71 incubated for 3 days by CellTiter 96 luminescent cell viability assay. The format is toxicity, cell-based. The note with it: time 3 day.

Usually CC50 stands for the concentration at which the toxic effect on the cells reaches its halfway point. High values mean lower toxicity to the cells, low ones greater toxicity to the cells. As a reminder, the IC50 is the midpoint of a concentration-inhibition curve. Low readings indicate greater potency in that assay, high ones weaker potency in that assay. Consider `Cn1nnnc1Sc1c(Cl)cc(C(=O)c2ccc(C(F)(F)F)cc2O)n1-c1c(C(=O)c2ccc(C(F)(F)F)cc2O)[nH]c(Cl)c1Cl`, for which the selectivity ratio in data set [1] turned out to be 1.01; in [4], 1.79; in data set [5] it was 1.56; in data set [7] it was 0.89; in [8], 4.48; in data set [12], 2.52. The CC50 at 168 h came to 2480 nM in data set [2], 2490 nM in data set [6], 3120 nM in data set [10] and 3120 nM in data set [11]. In addition, the cytotoxic concentration (CC50) at 72 h came to 4290 nM in data set [3] and 4300 nM in data set [9]. Besides, the IC50 with Coxsackievirus A16 was 960 nM; in the data set on Coxsackievirus, 2750 nM; with Zika virus it was 1240 nM; in the data set with Yellow fever virus it was 2470 nM; in data set [13] it was 2790 nM; in the data set on Dengue virus, 1740 nM.

Regarding `O=C(c1ccc(C(F)(F)F)cc1O)c1[nH]c(Cl)c(Cl)c1-n1c(C(=O)c2ccc(C(F)(F)F)cc2O)cc(Cl)c1SCc1ccccn1`, the cytotoxic concentration (CC50) at 168 h in [2] came out at 260 nM; in data set [10], 320 nM. In addition, the CC50 at 72 h in [3] was 340 nM; in data set [9], 340 nM; in data set [15], 240 nM. Also, the selectivity ratio in [5] is 1.8; in data set [7], 0.61; in [8], 11.5; in data set [14], 1.43. Further, the IC50 in the data set on Enterovirus A71 worked out at 170 nM; in the data set on Coxsackievirus A16 it was 30 nM; in the data set with Coxsackievirus, 190 nM; in data set [13] it was 420 nM.

Regarding `O=C(c1ccc(C(F)(F)F)cc1O)c1[nH]c(Cl)c(Cl)c1-n1c(C(=O)c2ccc(C(F)(F)F)cc2O)cc(Cl)c1Sc1cccs1`, the selectivity ratio in [1] was 4.6; in data set [5], 3.67; in data set [7], 4.59; in data set [8] it was 12.2; in data set [14], 4. In addition, the CC50 at 168 h in [2] and in [6] was 230 nM throughout. Also, the half-maximal cytotoxic concentration (CC50) at 72 h was determined as 110 nM in data set [3], 110 nM in [9] and 80 nM in data set [15]. The IC50 in the data set on Enterovirus A71 was found to be 20 nM; with Coxsackievirus A16, 10 nM; in the data set with Coxsackievirus it was 30 nM; in the data set on Yellow fever virus it was 50 nM; in [13], 50 nM.

As to `O=C(c1ccc(C(F)(F)F)cc1O)c1[nH]c(Cl)c(Cl)c1-n1c(C(=O)c2ccc(C(F)(F)F)cc2O)cc(Cl)c1SCCO`, the selectivity ratio in [1] was 2.41; in data set [4] it was 3.34; in data set [7] it was 2.13; in data set [14], 2.85; in [12], 7.13. For the same molecule, the 50% cytotoxic concentration (CC50) at 168 h in [2] was determined as 1450 nM; in data set [6], 1450 nM; in [10], 1420 nM; in data set [11] it was 500 nM. In addition, the IC50 in the data set on Enterovirus A71 was determined as 550 nM; in the data set with Zika virus it was 70 nM; with Yellow fever virus, 600 nM; in data set [13] it was 680 nM; with Dengue virus it was 150 nM. This molecule displayed a CC50 at 72 h in [15] of 1570 nM.

Regarding `CN(C)CCn1nnnc1Sc1c(Cl)cc(C(=O)c2ccc(C(F)(F)F)cc2O)n1-c1c(C(=O)c2ccc(C(F)(F)F)cc2O)[nH]c(Cl)c1Cl`, the selectivity ratio in data set [1] came out at 2.1; in data set [4], 1.51; in data set [7], 1.96; in [14], 1.28; in data set [12] it was 1.67. Besides, the CC50 at 168 h in [2] came to 4140 nM; in data set [6], 4140 nM; in data set [10], 2820 nM; in data set [11], 2820 nM. Moreover, the IC50 with Enterovirus A71 is 2470 nM; in the data set on Zika virus it was 1690 nM; in the data set with Yellow fever virus, 1970 nM; in [13], 2110 nM; with Dengue virus, 1870 nM. In data set [15], this molecule gave a CC50 at 72 h of 3170 nM.

For `O=C(c1ccc(C(F)(F)F)cc1O)c1[nH]c(Cl)c(Cl)c1-n1c(C(=O)c2ccc(C(F)(F)F)cc2O)cc(Cl)c1Sc1ccccn1`, the selectivity ratio was 4.6 in [1], 1.2 in data set [5], 1.1 in data set [7] and 22.8 in [8]. Further, the CC50 at 168 h in [2] and in [6] was 230 nM in each case. The half-maximal cytotoxic concentration (CC50) at 72 h in data set [3] and in [9] was 230 nM each time. The 50% inhibitory concentration (IC50) with Coxsackievirus A16 was 10 nM; with Coxsackievirus, 190 nM; in the data set with Yellow fever virus, 50 nM; in data set [13], 210 nM.

For the molecule `C#C[C@@]1(O)[C@H](O)[C@@H](CO)O[C@H]1n1ccc2c(N)ncnc21`, the selectivity ratio is above 10.5 in data set [1]; above 3.96 in data set [4]; above 21.7 in [5]; above 6.47 in data set [7]; above 28.2 in data set [8]; above 40 in [14]. The selectivity ratio in data set [12] is above 12.3. The 50% cytotoxic concentration (CC50) at 168 h in data set [2], in data set [6], in data set [10] and in data set [11] was above 20000 nM in each case. In addition, the 50% cytotoxic concentration (CC50) at 72 h in data set [3], in data set [9] and in [15] was above 20000 nM throughout. Further, the half-inhibitory concentration (IC50) in the data set on Enterovirus A71 turned out to be 500 nM; with Coxsackievirus A16, 710 nM; in the data set with Coxsackievirus, 920 nM; with Zika virus, 1620 nM; with Yellow fever virus, 1910 nM; in data set [13] it was 3090 nM. Besides, the IC50 with Dengue virus was 5050 nM.

Take `O=C(c1ccc(C(F)(F)F)cc1O)c1[nH]c(Cl)c(Cl)c1-n1c(C(=O)c2ccc(C(F)(F)F)cc2O)cc(Cl)c1SCCCO`: the selectivity ratio in data set [1] was determined as 7.1; in [4], 6.17; in data set [5] it was 4; in [7] it was 6.17; in data set [12] it was 14.2. The 50% cytotoxic concentration (CC50) at 168 h in [2], in [6] and in data set [11] was 1420 nM throughout. Further, the midpoint of cytotoxicity in [3], the CC50 at 72 h, lay at 1040 nM. The half-inhibitory concentration (IC50) in the data set with Coxsackievirus is 260 nM; in the data set on Zika virus it was 100 nM; in the data set on Yellow fever virus, 200 nM; in data set [13], 230 nM; with Dengue virus, 230 nM.

Turning to `O=C(c1ccc(C(F)(F)F)cc1O)c1[nH]c(Cl)c(Cl)c1-n1c(C(=O)c2ccc(C(F)(F)F)cc2O)cc(Cl)c1Sc1nc2ccccc2o1`, the cytotoxic concentration (CC50) at 168 h in data set [2] and in data set [11] was 1800 nM in each case. Moreover, the figures for the 50% cytotoxic concentration (CC50) at 72 h in data set [3], in [9] and in data set [15] were 1560 nM, 1560 nM and 920 nM, respectively. Moreover, the selectivity ratio in data set [4] was determined as 5; in data set [5], 3.18; in data set [7] it was 1.44; in data set [8] it was 12; in data set [14] it was 3.07; in [12] it was 5. For the same molecule, the IC50 with Enterovirus A71 was determined as 300 nM; in the data set on Coxsackievirus A16 it was 130 nM; in the data set on Coxsackievirus it was 490 nM; in the data set with Zika virus, 360 nM; in [13], 1250 nM; in the data set with Dengue virus, 360 nM.

For `O=C(c1ccc(C(F)(F)F)cc1O)c1[nH]c(Cl)c(Cl)c1-n1c(C(=O)c2ccc(C(F)(F)F)cc2O)cc(Cl)c1Sc1ncccn1`, the CC50 at 72 h worked out at 530 nM in [3], 530 nM in [9] and 320 nM in [15]. The selectivity ratio stood at 1.84 in [5], 17.8 in data set [8] and 3.56 in data set [14]. Also, the half-inhibitory concentration (IC50) in the data set with Enterovirus A71 was determined as 90 nM; in the data set on Coxsackievirus A16, 30 nM; with Coxsackievirus, 290 nM.
